# Experimental data as given in patent publication US4521428A, “Anorexigenic trifluoromethylphenyltetrahydropyridines and pharmaceutical compositions containing them” (Sanofi, priority 1982, dated 1985).
# Read-outs that look alike come from different tables or passages of the source.
# Columns and labels:
# [1] = acute toxicity in the rat (LD50) by the oral or intraperitoneal route; conditions: in vivo; for selectivity ratio: read-out: A/B (LD50/ID50, therapeutic index)
# Excerpt: the acute toxicity, expressed as LD50 in the rat by the oral or intraperitoneal route (A);
# the ratio between the acute toxicity and the anorectic activity which expresses the therapeutic index related to the acute toxicity (A/B).
# [2] = tested on: food intake (female rats); assay: anorectic activity by the food intake method in the rat; assay type: in vivo; conditions: food taken in first hour, read-out: ID50 (dose inhibiting by 50% the food intake)
# Description: The anorectic activity was assessed by the food intake method in the rat. Female rats weighing 200 g are used, which were trained for 10 days to eat during a period of 4 hours and selected on the eighth day. At the end of the tenth day, the randomised animals were divided into a "control group" treated with the vehicle alone, and into several "treated groups". The treatment was effected by intraperitoneal or by oral route 30 minutes or 1 hour, respectively, before the presentation of the food and the amount of food taken in the course of the first hour was then measured.
# the anorectic activity, expressed as oral or intraperitoneal dose inhibiting by 50% the food intake (ID50, B);
# cerebral serotonin [3] = assay: cerebral rates of serotonin compared to controls, according to Curzon and Green; assay type: in vivo; conditions: for cerebral rates of serotonin, % compared to controls: two hours after administration
# Excerpt: Table II hereinbelow summarizes the percent cerebral rates of serotonin, compared to the controls, after intraperitoneal or oral administration of four representative compounds of the present invention. The determination of the cerebral rates, according to Curzon and Green (Br. J. Pharmacol. 1970, 39, 653) was made two hours after the administration. Fenfluramine was used as reference compound.
# cerebral noradrenaline = conditions: cited from earlier work
# serotonin release = conditions: central neurons; cited from earlier work
# central nervous system = conditions: in vivo; cited from earlier work
# cerebral serotonin [4] = conditions: doses very close to the anorectic dose; Arch. Intern. Pharmacodyn. Ther. 1967; cited from earlier work
# [5] = ip, 1 h, i.p., 30 minutes before food
SMILES,selectivity ratio ([1]; os),"LD50 ([1]; po, os) [mg/kg]","ED50 ([2]; po, os, 1 hour before food) [mg/kg]",also measured
"Cl.FC(F)(F)c1cccc(C2=CCN(CCc3ccc4ccccc4c3)CC2)c1 [Example 7, 1-[2-(2-naphthyl)ethyl]-4-(3-trifluoromethylphenyl)-1,2,3,6-tetrahydropyridine hydrochloride]",> 76.6,> 800,10.4,–
"Cl.FC(F)(F)c1cccc(C2=CCN(CCc3cccc4ccccc34)CC2)c1 [Example 6, 1-[2-(1-naphthyl)ethyl]-4-(3-trifluoromethylphenyl)-1,2,3,6-tetrahydropyridine hydrochloride]",> 126,> 600,4.75,–
"Cl.FC(F)(F)c1cccc(C2=CCN(CCc3cccnc3)CC2)c1 [Example 2, 1-[2-(3-pyridyl)ethyl]-4-(3-trifluoromethylphenyl)-1,2,3,6-tetrahydropyridine hydrochloride]",128,227,1.77,"cerebral rates of serotonin, % compared to controls (cerebral serotonin [3]; os, 2.0 mg/kg): 113 ± 5%"
"Cl.FC(F)(F)c1cccc(C2=CCN(CCc3ccncc3)CC2)c1 [Example 3, 1-[2-(4-pyridyl)ethyl]-4-(3-trifluoromethylphenyl)-1,2,3,6-tetrahydropyridine hydrochloride]",49.6,289,5.82,–
"Cc1cccc(CCN2CC=C(c3cccc(C(F)(F)F)c3)CC2)n1.Cl [Example 4, 1-[2-(6-methyl-2-pyridyl)ethyl]-4-(3-trifluoromethylphenyl)-1,2,3,6-tetrahydropyridine hydrochloride]",35.6,202,5.69,"cerebral rates of serotonin, % compared to controls (cerebral serotonin [3]; os, 5.69 mg/kg): 119 ± 6%"
CC(N)Cc1ccccc1 (stereo not drawn) [amphetamine],–,–,–,noradrenaline release mediating anorexia (background) (cerebral noradrenaline): seems to be mediated by the release of cerebral noradrenaline
"CCNC(C)Cc1cccc(C(F)(F)F)c1 (stereo not drawn) [Fenfluramine, reference compound]",–,231,2.51,"LD50 ([1]; ip): 102 mg/kg; serotonin release (background) (serotonin release): release of the endogenous serotonin of the central neurons; ED50 [2, 5]: 1.58 mg/kg; anorectic activity (background) (central nervous system): excellent anorectic activity; sedative/stimulant action (background) (central nervous system): some sedative action; cerebral rates of serotonin (background) (cerebral serotonin [4]): significant reduction in the cerebral rates of serotonin; cerebral serotonin depletion/reduction (cerebral serotonin [3]; in vivo): significant reduction of the cerebral serotonin"
"Cl.[O-][n+]1ccc(CCN2CC=C(c3cccc(C(F)(F)F)c3)CC2)cc1 [Example 5, 4-[2-[4-(3-trifluoromethylphenyl)-1,2,3,6-tetrahydropyrid-1-yl]ethyl]pyridine 1-oxide hydrochloride]",~176,~300,1.71,–
"Cl.FC(F)(F)c1cccc(C2=CCN(CCc3ccccn3)CC2)c1 [Example 1, 1-[2-(2-pyridyl)ethyl]-4-(3-trifluoromethylphenyl)-1,2,3,6-tetrahydropyridine hydrochloride]",56,195,3.49,"LD50 ([1]; ip): 108 mg/kg; selectivity ratio ([1]; ip): 54.2; ED50 [2, 5]: 1.99 mg/kg; cerebral rates of serotonin, % compared to controls (cerebral serotonin [3]; i.p., 1.625 mg/kg): 93 ± 7%; cerebral rates of serotonin, % compared to controls (cerebral serotonin [3]; i.p., 3.25 mg/kg): 85 ± 1%; cerebral rates of serotonin, % compared to controls (cerebral serotonin [3]; i.p., 7.5 mg/kg, °° P < 0.01): 98 ± 10%"
